tested on: esterase E011; experiment: Initial screening of ThermoGen esterases toward esters 1-31 (pH indicator), specific activity; format: biochemical; settings: 1 mM substrate, pH 7.2, 7 vol % acetonitrile, 25° C.
Procedure: (§1) Initial screening measures the initial rate of hydrolysis of different esters. The rate of reaction was measured by monitoring the release of protons using a pH indicator, 4-nitrophenol. In this assay, the yellow color of the phenoxide disappears as the reaction proceeds. The amount of ester hydrolyzed can be measured quantitatively, as is known in the art.

Structure (SMILES)	Specific activity, esterase E011
CC(C(=O)Oc1ccc([N+](=O)[O-])cc1)c1ccccc1 (racemic) [Substrate 1, (±)-4-nitrophenyl-2-phenylpropanoate, reference compound]	5.1 mmol ester hydrolyzed/min/mg protein
CC(C)Cc1ccc(C(C)C(=O)Oc2ccc([N+](=O)[O-])cc2)cc1 (racemic) [Substrate 2, (±)-4-nitrophenyl 2-(4-isobutylphenyl)propanoate, reference compound]	160 mmol ester hydrolyzed/min/mg protein
NC(Cc1ccccc1)C(=O)Oc1ccc([N+](=O)[O-])cc1.O=C(O)C(F)(F)F (racemic) [Substrate 3, D,L-phenylalanine-4-nitrophenol ester TFA salt, reference compound]	220 mmol ester hydrolyzed/min/mg protein
CCCC(=O)OCC1COC(C)(C)O1 (racemic) [Substrate 8, (±)-Solketal Butyrate, reference compound]	<0.1 mmol ester hydrolyzed/min/mg protein
C=COC(=O)CCCCC [Substrate 4]	680 mmol ester hydrolyzed/min/mg protein
C=COC(=O)CCCCCCC [Substrate 5]	260 mmol ester hydrolyzed/min/mg protein
CCCCCCCCCCCCCC(=O)Oc1ccc2nc3ccc(=O)cc-3oc2c1 [Substrate 6, Resorufin tetradecanoate, reference compound]	280 mmol ester hydrolyzed/min/mg protein
C=COC(=O)CCCCCCCCCCCCC [Substrate 7]	0.45 mmol ester hydrolyzed/min/mg protein
CCCCCCCC(=O)OCC [Substrate 15]	11 mmol ester hydrolyzed/min/mg protein
CCOC(=O)CBr [Substrate 18]	5.5 mmol ester hydrolyzed/min/mg protein
COC(=O)CBr [Substrate 19]	1.6 mmol ester hydrolyzed/min/mg protein
COC(=O)Cc1ccccc1 [Substrate 22]	<0.1 mmol ester hydrolyzed/min/mg protein
COC(=O)c1ccc(CO)cc1 [Substrate 23]	<0.1 mmol ester hydrolyzed/min/mg protein
CCCOC(C)=O [Substrate 24]	0.25 mmol ester hydrolyzed/min/mg protein

tested on: esterase E006; experiment: as above; format: biochemical; settings: 1 mM substrate, pH 7.2, 7 vol % acetonitrile, 25° C.
Procedure: as §1
(§2) To survey the substrate selectivity of the ThermoGen esterases, the ability of the enzymes to hydrolyze thirty-one different commercially-available esters, Scheme 1 (FIG. 9, Table 6).

Structure (SMILES)	Specific activity, esterase E006
CC(C(=O)Oc1ccc([N+](=O)[O-])cc1)c1ccccc1 (racemic) [Substrate 1, (±)-4-nitrophenyl-2-phenylpropanoate, reference compound]	120 mmol ester hydrolyzed/min/mg protein
CC(C)Cc1ccc(C(C)C(=O)Oc2ccc([N+](=O)[O-])cc2)cc1 (racemic) [Substrate 2, (±)-4-nitrophenyl 2-(4-isobutylphenyl)propanoate, reference compound]	260 mmol ester hydrolyzed/min/mg protein
NC(Cc1ccccc1)C(=O)Oc1ccc([N+](=O)[O-])cc1.O=C(O)C(F)(F)F (racemic) [Substrate 3, D,L-phenylalanine-4-nitrophenol ester TFA salt, reference compound]	410 mmol ester hydrolyzed/min/mg protein
CCCC(=O)OCC1COC(C)(C)O1 (racemic) [Substrate 8, (±)-Solketal Butyrate, reference compound]	0.13 mmol ester hydrolyzed/min/mg protein
C=COC(=O)CCCCC [Substrate 4]	1700 mmol ester hydrolyzed/min/mg protein
C=COC(=O)CCCCCCC [Substrate 5]	960 mmol ester hydrolyzed/min/mg protein
CCCCCCCCCCCCCC(=O)Oc1ccc2nc3ccc(=O)cc-3oc2c1 [Substrate 6, Resorufin tetradecanoate, reference compound]	0.55 mmol ester hydrolyzed/min/mg protein
C=COC(=O)CCCCCCCCCCCCC [Substrate 7]	0.61 mmol ester hydrolyzed/min/mg protein
CCCCCCCC(=O)OCC [Substrate 15]	160 mmol ester hydrolyzed/min/mg protein
CCOC(=O)CBr [Substrate 18]	4.8 mmol ester hydrolyzed/min/mg protein
COC(=O)CBr [Substrate 19]	1.9 mmol ester hydrolyzed/min/mg protein
COC(=O)Cc1ccccc1 [Substrate 22]	0.16 mmol ester hydrolyzed/min/mg protein
COC(=O)c1ccc(CO)cc1 [Substrate 23]	0.27 mmol ester hydrolyzed/min/mg protein
CCCOC(C)=O [Substrate 24]	0.31 mmol ester hydrolyzed/min/mg protein

tested on: esterase E012; experiment: as above; format: biochemical; settings: 1 mM substrate, pH 7.2, 7 vol % acetonitrile, 25° C.
Procedure: as §1, §2

Structure (SMILES)	Specific activity, esterase E012
CC(C(=O)Oc1ccc([N+](=O)[O-])cc1)c1ccccc1 (racemic) [Substrate 1, (±)-4-nitrophenyl-2-phenylpropanoate, reference compound]	3.1 mmol ester hydrolyzed/min/mg protein
CC(C)Cc1ccc(C(C)C(=O)Oc2ccc([N+](=O)[O-])cc2)cc1 (racemic) [Substrate 2, (±)-4-nitrophenyl 2-(4-isobutylphenyl)propanoate, reference compound]	11 mmol ester hydrolyzed/min/mg protein
NC(Cc1ccccc1)C(=O)Oc1ccc([N+](=O)[O-])cc1.O=C(O)C(F)(F)F (racemic) [Substrate 3, D,L-phenylalanine-4-nitrophenol ester TFA salt, reference compound]	37 mmol ester hydrolyzed/min/mg protein
CCCC(=O)OCC1COC(C)(C)O1 (racemic) [Substrate 8, (±)-Solketal Butyrate, reference compound]	<2 mmol ester hydrolyzed/min/mg protein
C=COC(=O)CCCCC [Substrate 4]	48 mmol ester hydrolyzed/min/mg protein
C=COC(=O)CCCCCCC [Substrate 5]	50 mmol ester hydrolyzed/min/mg protein
CCCCCCCCCCCCCC(=O)Oc1ccc2nc3ccc(=O)cc-3oc2c1 [Substrate 6, Resorufin tetradecanoate, reference compound]	27 mmol ester hydrolyzed/min/mg protein
C=COC(=O)CCCCCCCCCCCCC [Substrate 7]	7.6 mmol ester hydrolyzed/min/mg protein
CCCCCCCC(=O)OCC [Substrate 15]	19 mmol ester hydrolyzed/min/mg protein
CCOC(=O)CBr [Substrate 18]	5.9 mmol ester hydrolyzed/min/mg protein
COC(=O)CBr [Substrate 19]	2.4 mmol ester hydrolyzed/min/mg protein
COC(=O)Cc1ccccc1 [Substrate 22]	<2 mmol ester hydrolyzed/min/mg protein
COC(=O)c1ccc(CO)cc1 [Substrate 23]	<2 mmol ester hydrolyzed/min/mg protein
CCCOC(C)=O [Substrate 24]	2.8 mmol ester hydrolyzed/min/mg protein

tested on: esterase E014; experiment: as above; format: biochemical; settings: 1 mM substrate, pH 7.2, 7 vol % acetonitrile, 25° C.
Procedure: as §1, §2

Structure (SMILES)	Specific activity, esterase E014
CC(C(=O)Oc1ccc([N+](=O)[O-])cc1)c1ccccc1 (racemic) [Substrate 1, (±)-4-nitrophenyl-2-phenylpropanoate, reference compound]	1.2 mmol ester hydrolyzed/min/mg protein
CC(C)Cc1ccc(C(C)C(=O)Oc2ccc([N+](=O)[O-])cc2)cc1 (racemic) [Substrate 2, (±)-4-nitrophenyl 2-(4-isobutylphenyl)propanoate, reference compound]	170 mmol ester hydrolyzed/min/mg protein
NC(Cc1ccccc1)C(=O)Oc1ccc([N+](=O)[O-])cc1.O=C(O)C(F)(F)F (racemic) [Substrate 3, D,L-phenylalanine-4-nitrophenol ester TFA salt, reference compound]	180 mmol ester hydrolyzed/min/mg protein
CCCC(=O)OCC1COC(C)(C)O1 (racemic) [Substrate 8, (±)-Solketal Butyrate, reference compound]	<0.1 mmol ester hydrolyzed/min/mg protein
C=COC(=O)CCCCC [Substrate 4]	540 mmol ester hydrolyzed/min/mg protein
C=COC(=O)CCCCCCC [Substrate 5]	8.0 mmol ester hydrolyzed/min/mg protein
CCCCCCCCCCCCCC(=O)Oc1ccc2nc3ccc(=O)cc-3oc2c1 [Substrate 6, Resorufin tetradecanoate, reference compound]	170 mmol ester hydrolyzed/min/mg protein
C=COC(=O)CCCCCCCCCCCCC [Substrate 7]	0.81 mmol ester hydrolyzed/min/mg protein
CCCCCCCC(=O)OCC [Substrate 15]	5.1 mmol ester hydrolyzed/min/mg protein
CCOC(=O)CBr [Substrate 18]	37 mmol ester hydrolyzed/min/mg protein
COC(=O)CBr [Substrate 19]	0.73 mmol ester hydrolyzed/min/mg protein
COC(=O)Cc1ccccc1 [Substrate 22]	<0.1 mmol ester hydrolyzed/min/mg protein
COC(=O)c1ccc(CO)cc1 [Substrate 23]	<0.1 mmol ester hydrolyzed/min/mg protein
CCCOC(C)=O [Substrate 24]	<0.1 mmol ester hydrolyzed/min/mg protein

tested on: esterase E015; experiment: as above; format: biochemical; settings: 1 mM substrate, pH 7.2, 7 vol % acetonitrile, 25° C.
Procedure: as §1, §2

Structure (SMILES)	Specific activity, esterase E015
CC(C(=O)Oc1ccc([N+](=O)[O-])cc1)c1ccccc1 (racemic) [Substrate 1, (±)-4-nitrophenyl-2-phenylpropanoate, reference compound]	89 mmol ester hydrolyzed/min/mg protein
CC(C)Cc1ccc(C(C)C(=O)Oc2ccc([N+](=O)[O-])cc2)cc1 (racemic) [Substrate 2, (±)-4-nitrophenyl 2-(4-isobutylphenyl)propanoate, reference compound]	350 mmol ester hydrolyzed/min/mg protein
NC(Cc1ccccc1)C(=O)Oc1ccc([N+](=O)[O-])cc1.O=C(O)C(F)(F)F (racemic) [Substrate 3, D,L-phenylalanine-4-nitrophenol ester TFA salt, reference compound]	280 mmol ester hydrolyzed/min/mg protein
CCCC(=O)OCC1COC(C)(C)O1 (racemic) [Substrate 8, (±)-Solketal Butyrate, reference compound]	0.16 mmol ester hydrolyzed/min/mg protein
C=COC(=O)CCCCC [Substrate 4]	1100 mmol ester hydrolyzed/min/mg protein
C=COC(=O)CCCCCCC [Substrate 5]	320 mmol ester hydrolyzed/min/mg protein
CCCCCCCCCCCCCC(=O)Oc1ccc2nc3ccc(=O)cc-3oc2c1 [Substrate 6, Resorufin tetradecanoate, reference compound]	330 mmol ester hydrolyzed/min/mg protein
C=COC(=O)CCCCCCCCCCCCC [Substrate 7]	3.0 mmol ester hydrolyzed/min/mg protein
CCCCCCCC(=O)OCC [Substrate 15]	120 mmol ester hydrolyzed/min/mg protein
CCOC(=O)CBr [Substrate 18]	100 mmol ester hydrolyzed/min/mg protein
COC(=O)CBr [Substrate 19]	2.6 mmol ester hydrolyzed/min/mg protein
COC(=O)Cc1ccccc1 [Substrate 22]	0.14 mmol ester hydrolyzed/min/mg protein
COC(=O)c1ccc(CO)cc1 [Substrate 23]	0.13 mmol ester hydrolyzed/min/mg protein
CCCOC(C)=O [Substrate 24]	0.26 mmol ester hydrolyzed/min/mg protein

tested on: esterase E016; experiment: as above; format: biochemical; settings: 1 mM substrate, pH 7.2, 7 vol % acetonitrile, 25° C.
Procedure: as §1, §2

Structure (SMILES)	Specific activity, esterase E016
CC(C(=O)Oc1ccc([N+](=O)[O-])cc1)c1ccccc1 (racemic) [Substrate 1, (±)-4-nitrophenyl-2-phenylpropanoate, reference compound]	63 mmol ester hydrolyzed/min/mg protein
CC(C)Cc1ccc(C(C)C(=O)Oc2ccc([N+](=O)[O-])cc2)cc1 (racemic) [Substrate 2, (±)-4-nitrophenyl 2-(4-isobutylphenyl)propanoate, reference compound]	220 mmol ester hydrolyzed/min/mg protein
NC(Cc1ccccc1)C(=O)Oc1ccc([N+](=O)[O-])cc1.O=C(O)C(F)(F)F (racemic) [Substrate 3, D,L-phenylalanine-4-nitrophenol ester TFA salt, reference compound]	230 mmol ester hydrolyzed/min/mg protein
CCCC(=O)OCC1COC(C)(C)O1 (racemic) [Substrate 8, (±)-Solketal Butyrate, reference compound]	2.2 mmol ester hydrolyzed/min/mg protein
C=COC(=O)CCCCC [Substrate 4]	1300 mmol ester hydrolyzed/min/mg protein
C=COC(=O)CCCCCCC [Substrate 5]	1200 mmol ester hydrolyzed/min/mg protein
CCCCCCCCCCCCCC(=O)Oc1ccc2nc3ccc(=O)cc-3oc2c1 [Substrate 6, Resorufin tetradecanoate, reference compound]	15 mmol ester hydrolyzed/min/mg protein
C=COC(=O)CCCCCCCCCCCCC [Substrate 7]	21 mmol ester hydrolyzed/min/mg protein
CCCCCCCC(=O)OCC [Substrate 15]	83 mmol ester hydrolyzed/min/mg protein
CCOC(=O)CBr [Substrate 18]	16 mmol ester hydrolyzed/min/mg protein
COC(=O)CBr [Substrate 19]	7.6 mmol ester hydrolyzed/min/mg protein
COC(=O)Cc1ccccc1 [Substrate 22]	<2 mmol ester hydrolyzed/min/mg protein
COC(=O)c1ccc(CO)cc1 [Substrate 23]	<2 mmol ester hydrolyzed/min/mg protein
CCCOC(C)=O [Substrate 24]	<2 mmol ester hydrolyzed/min/mg protein

tested on: esterase E020; experiment: as above; format: biochemical; settings: 1 mM substrate, pH 7.2, 7 vol % acetonitrile, 25° C.
Procedure: as §1, §2

Structure (SMILES)	Specific activity, esterase E020
CC(C(=O)Oc1ccc([N+](=O)[O-])cc1)c1ccccc1 (racemic) [Substrate 1, (±)-4-nitrophenyl-2-phenylpropanoate, reference compound]	110 mmol ester hydrolyzed/min/mg protein
CC(C)Cc1ccc(C(C)C(=O)Oc2ccc([N+](=O)[O-])cc2)cc1 (racemic) [Substrate 2, (±)-4-nitrophenyl 2-(4-isobutylphenyl)propanoate, reference compound]	370 mmol ester hydrolyzed/min/mg protein
NC(Cc1ccccc1)C(=O)Oc1ccc([N+](=O)[O-])cc1.O=C(O)C(F)(F)F (racemic) [Substrate 3, D,L-phenylalanine-4-nitrophenol ester TFA salt, reference compound]	550 mmol ester hydrolyzed/min/mg protein
CCCC(=O)OCC1COC(C)(C)O1 (racemic) [Substrate 8, (±)-Solketal Butyrate, reference compound]	<0.2 mmol ester hydrolyzed/min/mg protein
C=COC(=O)CCCCC [Substrate 4]	3000 mmol ester hydrolyzed/min/mg protein
C=COC(=O)CCCCCCC [Substrate 5]	1200 mmol ester hydrolyzed/min/mg protein
CCCCCCCCCCCCCC(=O)Oc1ccc2nc3ccc(=O)cc-3oc2c1 [Substrate 6, Resorufin tetradecanoate, reference compound]	1200 mmol ester hydrolyzed/min/mg protein
C=COC(=O)CCCCCCCCCCCCC [Substrate 7]	1.0 mmol ester hydrolyzed/min/mg protein
CCCCCCCC(=O)OCC [Substrate 15]	2.6 mmol ester hydrolyzed/min/mg protein
CCOC(=O)CBr [Substrate 18]	3.1 mmol ester hydrolyzed/min/mg protein
COC(=O)CBr [Substrate 19]	1.6 mmol ester hydrolyzed/min/mg protein
COC(=O)Cc1ccccc1 [Substrate 22]	0.28 mmol ester hydrolyzed/min/mg protein
COC(=O)c1ccc(CO)cc1 [Substrate 23]	0.47 mmol ester hydrolyzed/min/mg protein
CCCOC(C)=O [Substrate 24]	0.85 mmol ester hydrolyzed/min/mg protein
